Earlier results as cited in publication PMC6838683, “Discovery of Human Signaling Systems: Pairing Peptides to G Protein-Coupled Receptors” (Cell, 2019).
Where two headings read alike, the source gives them in different places. No end group written: not given here.

Tested on: human GPCRs
Design: method as in Guide to Pharmacology database
Conditions: max reported value, ref Guide to Pharmacology database, cited from earlier work
Text: Supplement mmc1.xlsx, sheet "HumanGPCRLigands" | column: pKi_value; pKd_value; pEC50_value; pIC50_value

[1] = receptor npbw1_human (NPBWR1, P48145)
[2] = receptor npbw2_human (NPBWR2, P48146)
[3] = receptor NPY4R (npy4r_human, P50391)
[4] = receptor NPY5R (npy5r_human, Q15761)
[5] = receptor OPRL1 (oprx_human, P41146)
[6] = receptor RXFP1 (rxfp1_human, Q9HBX9)
[7] = receptor RXFP2 (rxfp2_human, Q8WXD0)
[8] = receptor RXFP3 (rl3r1_human, Q9NSD7)
[9] = receptor RXFP4 (rl3r2_human, Q8TDU9)
[10] = receptor crfr2_human (CRHR2, Q13324)
[11] = receptor UTS2R (ur2r_human, Q9UKP6)
[12] = receptor OPRK1 (oprk_human, P41145)
[13] = receptor CCR1 (ccr1_human, P32246)
[14] = receptor CCR5 (ccr5_human, P51681)
[15] = receptor CCR4 (ccr4_human, P51679)
[16] = receptor CCR3 (ccr3_human, P51677)

Q: Which pIC50_value (receptor NPBWR2 (npbw2_human, P48146)) does the source give for “neuropeptide B-29 (WYKPAAGHSSYSVGRAAGLLSGLRRSPYA; not fully specified; UniProt Q8NG41 25-53, looked up)” here?
A: Its pIC50_value is 9.

Q: And the pIC50_value [1]?
A: Its pIC50_value is 9.5.

Q: For neuropeptide FF, which pKi_value (receptor npff1_human (NPFFR1, Q9GZQ6)) is on record?
A: Its pKi_value is 9.9.

Q: What about the pKi_value (receptor npff2_human (NPFFR2, Q9Y5X5)) of the same molecule?
A: Its pKi_value is 9.7.

Q: Which results are given for “neuropeptide W-23 (WYKHVASPRYHTVGRAAGLLMGL)”?
A: pIC50_value [1]: 10; pIC50_value [2]: 9.6

Q: Which results are given for “neuropeptide W-30 (WYKHVASPRYHTVGRAAGLLMGLRRSPYLW; not fully specified; UniProt Q8N729 33-62, looked up)”?
A: pIC50_value [1]: 10.6; pIC50_value [2]: 9.4

Q: What does the source list for neuropeptide Y?
A: pKi_value [3]: 8; pKi_value [4]: 9.1

Q: For nociceptin/orphanin FQ, which pEC50_value [5] is on record?
A: The pEC50_value was 9.8.

Q: What about the pKi_value [5] of the same molecule?
A: The pKi_value was 10.4.

Q: For “orexin-A (QPLPDCCRQKTCSCRLYELLHGAGNHAAGILTL; not fully specified; ends and bridges not checked; UniProt O43612 34-66, looked up)”, which pEC50_value (receptor HCRTR1 (ox1r_human, O43613)) is on record?
A: Its pEC50_value is 10.2.

Q: And the pEC50_value (receptor HCRTR2 (ox2r_human, O43614))?
A: The pEC50_value was 10.

Q: Which pKi_value [3] does the source give for pancreatic polypeptide here?
A: The pKi_value was 10.9.

Q: What about the pKi_value [4] of the same molecule?
A: The pKi_value was 8.

Q: Which results are given for relaxin?
A: pEC50_value [6]: 10.4; pKi_value [6]: 10.2; pEC50_value [7]: 9.1; pKi_value [7]: 8.5; pEC50_value [8]: 8.4; pKd_value [8]: 10

Q: Which results are given for relaxin-3?
A: pKi_value [6]: 8; pKi_value [7]: 7; pEC50_value [8]: 9.9; pIC50_value [8]: 9.6; pKi_value [8]: 8.9; pEC50_value [9]: 9; pIC50_value [9]: 9; pKi_value [9]: 9

Q: Which pEC50_value (receptor sctr_human (SCTR, P47872)) does the source give for secretin here?
A: Its pEC50_value is 9.7.

Q: What does the source list for “urocortin 1 (DNPSLSIDLTFHLLRTLLELARTQSQRERAEQNRIIFDSV; ends and bridges not checked; UniProt P55089 83-122, looked up)”?
A: pKd_value (receptor crfr1_human (CRHR1, P34998)): 9.5; pKd_value [10]: 9.6

Q: Which pKd_value [10] does the source give for “urocortin 2 (IVLSLDVPIGLLQILLEQARARAAREQATTNARILARVGHC; ends and bridges not checked; UniProt Q96RP3 72-112, looked up)” here?
A: The pKd_value was 8.6.

Q: Which pKd_value [10] does the source give for “urocortin 3 (FTLSLDVPTNIMNLLFNIAKAKNLRAQAAANAHLMAQI; not fully specified; ends and bridges not checked; UniProt Q969E3 120-157, looked up)” here?
A: The pKd_value was 8.

Q: Which pIC50_value [11] does the source give for urotensin II-related peptide here?
A: The pIC50_value was 8.6.

Q: What about the pKd_value [11] of the same molecule?
A: Its pKd_value is 9.6.

Q: With “α-neoendorphin (YGGFLRKYPK; Alpha-neoendorphin; UniProt P01213 175-184, looked up)” as the molecule, how does the pKi_value [12] read?
A: Its pKi_value is 10.2.

Q: Which pEC50_value (receptor calcr_human (CALCR), Calcitonin receptors, Class B1 (Secretin)) does the source give for β-CGRP here?
A: The pEC50_value was 7.2.

Q: With β-endorphin as the molecule, how does the pKi_value (receptor OPRD1 (oprd_human, P41143)) read?
A: The pKi_value was 8.3.

Q: What about the pKi_value [12] of the same molecule?
A: The pKi_value was 7.9.

Q: Which pKi_value [12] does the source give for β-neoendorphin (YGGFLRKYP) here?
A: Its pKi_value is 7.9.

Q: For γ-MSH, which pKd_value (receptor mc3r_human (MC3R, P41968)) is on record?
A: The pKd_value was 8.5.

B1: CCL14 (protein, UniProt Q16627 20-93, looked up)
C-C motif chemokine 14: TKTESSSRGPYHPSECCFTYTTYKIPRQRIMDYYETNSQCSKPGIVFITKRGHSVCTNPSDKWVQDYIKDMKEN
Q: With B1 as the molecule, how does the pKi_value [13] read?
A: The pKi_value was 7.4.

Q: What about the pKi_value [14] of the same molecule?
A: Its pKi_value is 7.2.

B2: annexin I (protein, UniProt P04083 2-346, looked up)
Annexin A1: AMVSEFLKQAWFIENEEQEYVQTVKSSKGGPGSAVSPYPTFNPSSDVAALHKAIMVKGVDEATIIDILTKRNNAQRQQIKAAYLQETGKPLDETLKKALTGHLEEVVLALLKTPAQFDADELRAAMKGLGTDEDTLIEILASRTNKEIRDINRVYREELKRDLAKDITSDTSGDFRNALLSLAKGDRSEDFGVNEDLADSDARALYEAGERRKGTDVNVFNTILTTRSYPQLRRVFQKYTKYSKHDMNKVLDLELKGDIEKCLTAIVKCATSKPAFFAEKLHQAMKGVGTRHKALIRIMVSRSEIDMNDIKAFYQKMYGISLCQAILDETKGDYEKILVALCGGN
Q: With B2 as the molecule, how does the pKd_value (receptor fpr2_human (FPR2, P25090)) read?
A: Its pKd_value is 6.5.

B3: CCL23 (protein, UniProt P55773 22-120, looked up)
C-C motif chemokine 23: RVTKDAETEFMMSKLPLENPVLLDRFHATSADCCISYTPRSIPCSLLESYFETNSECSKPGVIFLTKKGRRFCANPSDKQVQVCMRMLKLDTRIKTRKN
Q: Which pKi_value [13] does the source give for B3 here?
A: Its pKi_value is 8.9.

B4: CCL1 (protein, UniProt P22362 24-96, looked up)
C-C motif chemokine 1: KSMQVPFSRCCFSFAEQEIPLRAILCYRNTSSICSNEGLIFKLKRGKEACALDTVGWVQRHRKMLRHCPSKRK
Q: For B4, which pIC50_value (receptor CCR8 (ccr8_human, P51685)) is on record?
A: The pIC50_value was 9.8.

B5: CXCL16 (protein, UniProt Q9H2A7 30-254, looked up)
C-X-C motif chemokine 16: NEGSVTGSCYCGKRISSDSPPSVQFMNRLRKHLRAYHRCLYYTRFQLLSWSVCGGNKDPWVQELMSCLDLKECGHAYSGIVAHQKHLLPTSPPISQASEGASSDIHTPAQMLLSTLQSTQRPTLPVGSLSSDKELTRPNETTIHTAGHSLAAGPEAGENQKQPEKNAGPTARTSATVPVLCLLAIIFILTAALSYVLCKRRRGQSPQSSPDLPVHYIPVAPDSNT
Q: With B5 as the molecule, how does the pKd_value (receptor CXCR6 (cxcr6_human, O00574)) read?
A: The pKd_value was 9.

B6: CCL8 (protein, UniProt P80075 24-99, looked up)
C-C motif chemokine 8: QPDSVSIPITCCFNVINRKIPIQRLESYTRITNIQCPKEAVIFKTKRGKEVCADPKERWVRDSMKHLDQIFQNLKP
Q: For B6, which pIC50_value (receptor CCR2 (ccr2_human, P41597)) is on record?
A: The pIC50_value was 8.6.

Q: And the pKi_value [14]?
A: Its pKi_value is 9.3.

B7: CXCL7 (protein, UniProt P02775 59-128, looked up)
Neutrophil-activating peptide …: AELRCMCIKTTSGIHPKNIQSLEVIGKGTHCNQVEVIATLKDGRKICLDPDAPRIKKIVQKKLAGDESAD
modifications: Neutrophil-activating peptide 2
Q: Which pIC50_value (receptor CXCR2 (cxcr2_human, P25025)) does the source give for B7 here?
A: The pIC50_value was 9.3.

B8: CCL22 (protein, UniProt O00626 25-93, looked up)
C-C motif chemokine 22: GPYGANMEDSVCCRDYVRYRLPLRVVKHFYWTSDSCPRPGVVLLTFRDKEICADPRVPWVKMILNKLSQ
Q: For B8, which pIC50_value [15] is on record?
A: Its pIC50_value is 9.2.

B9: CCL4 (protein, UniProt P13236 24-92, looked up)
C-C motif chemokine 4: APMGSDPPTACCFSYTARKLPRNFVVDYYETSSLCSQPAVVFQTKRSKQVCADPSESWVQEYVYDLELN
Q: Which pKi_value [13] does the source give for B9 here?
A: The pKi_value was 7.8.

Q: And the pKi_value [14]?
A: The pKi_value was 9.6.

B10: CCL17 (protein, UniProt Q92583 24-94, looked up)
C-C motif chemokine 17: ARGTNVGRECCLEYFKGAIPLRKLKTWYQTSEDCSRDAIVFVTVQGRAICSDPNNKRVKNAVKYLQSLERS
Q: Which pIC50_value [15] does the source give for B10 here?
A: The pIC50_value was 8.7.

B11: CCL15 (protein, UniProt Q16663 22-113, looked up)
C-C motif chemokine 15: QFTNDAETELMMSKLPLENPVVLNSFHFAADCCTSYISQSIPCSLMKSYFETSSECSKPGVIFLTKKGRQVCAKPSGPGVQDCMKKLKPYSI
Q: For B11, which pIC50_value [13] is on record?
A: The pIC50_value was 7.9.

Q: What about the pIC50_value [16] of the same molecule?
A: The pIC50_value was 8.6.

B12: INSL3 (protein, UniProt P51460 21-55; P51460 106-131, looked up)
Insulin-like 3 B chain: LGPAPTPEMREKLCGHHFVRALVRVCGGPRWSTEA
Insulin-like 3 A chain: AAATNPARYCCLSGCTQQDLLTLCPY
Q: What does the source list for B12?
A: pKd_value [7]: 10.4; pKi_value [7]: 9.7

B13: large neuromedin N (protein, UniProt P30990 24-148, looked up)
Large neuromedin N: SDSEEEMKALEADFLTNMHTSKISKAHVPSWKMTLLNVCSLVNNLNSPAEETGEVHEEELVARRKLPTALDGFSLEAMLTIYQLHKICHSRAFQHWELIQEDILDTGNDKNGKEEVIKRKIPYIL
modifications: Large neuromedin N
Q: With B13 as the molecule, how does the pIC50_value (receptor NTSR1 (ntr1_human, P30989)) read?
A: Its pIC50_value is 7.4.

B14: CCL24 (protein, UniProt O00175 27-119, looked up)
C-C motif chemokine 24: VVIPSPCCMFFVSKRIPENRVVSYQLSSRSTCLKAGVIFTTKKGQQFCGDPKQEWVQRYMKNLDAKQKKASPRARAVAVKGPVQRYPGNQTTC
Q: For B14, which pIC50_value [16] is on record?
A: Its pIC50_value is 9.4.

B15: CCL21 (protein, UniProt O00585 24-134, looked up)
C-C motif chemokine 21: SDGGAQDCCLKYSQRKIPAKVVRSYRKQEPSLGCSIPAILFLPRKRSQAELCADPKELWVQQLMQHLDKTPSPQKPAQGCRKDRGASKTGKKGKGSKGCKRTERSQTPKGP
Q: For B15, which pIC50_value (receptor CCR7 (ccr7_human, P32248)) is on record?
A: Its pIC50_value is 9.3.
